Results as given in article PMC12113730 (Microorganisms, 2025).
Read-outs that look alike come from different tables or passages of the source. Ends that are not written are not given here.

Key:
C. albicans ATCC 18804 = conditions: ATCC 18804, 48 h
Procedure: (§1) For the antifungal tests, the strains C. albicans ATCC 90028, C. albicans ATCC 18804 and C. albicans ATCC 10231 were donated by the National Institute of Quality Control in Health (INCQS—Fundação Oswaldo Cruz—Fiocruz, Rio de Janeiro, Brazil). To prepare C. albicans for the tests, the lyophilized microorganism was initially reactivated in Sabouraud Dextrose Broth (Kasvi, Pinhais, Brazil) and incubated at 37 °C for 24 h. Then, the yeasts were seeded in Sabouraud Dextrose Agar and incubated for 48 h at 37 °C. Finally, the stock culture obtained was stored in a refrigerator at 4 °C for 3 months.
(§2) To prepare the standardized suspensions, some colonies of C. albicans stock cultures were seeded in Sabouraud Dextrose Broth and incubated for 24 h at 37 °C. After this time, a small aliquot of the inoculum was transferred to sterile Sabouraud Dextrose Broth to obtain a suspension with optical density (OD) between 0.10 and 0.15 (530 nm), with approximate concentration of 1 × 10^6 CFU mL^−1 [34, 35]. Finally, the suspension was diluted to obtain a concentration of 1 × 10^3 CFU mL^−1, which was used in the tests described below.
(§3) The antifungal activity tests were performed using broth microdilution. The broth microdilution was performed as described in the M27-A3 document of Clinical and Laboratory Standards Institute (CLSI) with modifications. The medium used was Sabouraud Dextrose Broth (SDB). The synthetic peptides were dissolved in a Tris·HCl 10 mM pH 7.2 buffer and added to the plate containing SDB for a final concentration in the first well of 160 µmol L^−1. The cell suspension was prepared as described under “Microorganisms and growth conditions”. This suspension was inoculated on a microdilution plate previously prepared with the peptides diluted in a concentration range from 160 to 0.31 µmol L^−1. The control drug used was fluconazole (FLU), diluted in deionized water. The plates were incubated at 37 °C for 48 h and at the end of the incubation time, the OD in each well was read in a spectrophotometer at 595 nm. The test was performed in triplicate for each of the strains.

C. albicans ATCC 90028 = conditions: ATCC 90028, 48 h, 20 µmol L^-1
Procedure: as §1, §2, §3

[1] = cationic-PAGE; for Time at which the band was no longer observed in the gel (total/complete degradation) / Band of the peptide in the gel at 8 h (in words): 50 µg mL^-1 peptide in 10-fold diluted human WSS; for Peptide remaining (band quantification): 0 h, 50 µg mL^-1 peptide in 10-fold diluted pooled human WSS, Coomassie, Image Lab relative quantity, mean ± SD, duplicate samples
Procedure: (§4) After an informed consent was obtained from all participants, stimulated whole saliva (WS) samples were collected from healthy, non-smoking adult male and female volunteers ranging from 25 to 39 years old. WS was obtained for three volunteers with good general oral health who were not taking medications that could alter their salivary flow and was performed as described previously in [29, 39]. Salivary secretion was stimulated by chewing a piece of Parafilm wax. WS was collected between 9 and 11 am, at least 2 h after the last meal. The salivary secretion was collected using a collecting tube that was kept on ice until obtaining 5.0 mL. The total volume of collected saliva was centrifuged at 4500× g (Sorvall™ ST 16 Centrifuge—Thermo Fisher Scientific, Waltham, MA, USA) at 4 °C for a period of 30 min to separate bacteria, cells and residues. The total whole saliva pellet and the total whole saliva supernatant (WSS) were separated, and the WSS was pooled and used for the degradation assay.
(§5) To assess and compare proteolysis degradation in the WS environment, all the peptides were added to WSS to observe their degradation over time by cationic-PAGE and HPLC. To investigate the degradation of each peptide, 50 µg mL^−1 of synthetic peptides 0WHst5, WP113, 8WH5, 7WH5 and 6WH5 were added to 10-fold diluted WSS. After 0, 0.5, 1.5, 4, 6, 8, 24 and 48 h of incubation, two aliquots of 100 µL were removed (one for the cationic-PAGE analysis another for HPLC analysis). After that, the aliquots were boiled for 5 min to terminate proteolytic activity. Subsequently the aliquots were diluted in a buffer containing 80% acetonitrile/19.9% H2O/0.1% trifluoroacetic acid, dried using a Vacufuge concentrator (Eppendorf, Westbury, NY, USA) and desalted using ZipTip® Pipette Tips (Merk, Rahway, NJ, USA) to concentrate and purify the samples [29].
(§6) For the cationic-PAGE, the aliquots were dried using a Vacufuge concentrator and resuspended in sample buffer containing 0.04% methyl green (Thermo Fisher Scientific, Waltham, MA, USA) in 40% sucrose. Then, 5 μg of each peptide was used as standard for the test. The stacking and separation gels were polymerized using 100 W incandescent light for 9 min each and the electrophoresis was carried out at a constant voltage of 120 V. The gels were stained with 0.1% Coomassie brilliant blue (w/v), 8% methanol (v/v) and 7% acetic acid (v/v) overnight with agitation. Destaining was carried out with 40% methanol, 10% acetic acid and 50% water (v/v). The extent of degradation was quantified by Image Lab using the relative quantity tool.

in vitro = conditions: both, human, 10-fold diluted pooled whole saliva supernatant (WSS)
Procedure: as §4, §5, §6

C. albicans = conditions: some species of C. albicans; cited from earlier work
Excerpt: High levels of Hst5 were found in the saliva of patients with periodontal and oral fungal infections.

[2] = for HPLC peak of intact peptide after 8 h (in words): 50 µg mL^-1 peptide in 10-fold diluted human WSS, RP-HPLC C18, UV 280 nm; for Time after which the peptide was still found in the samples in whole saliva: abstract, cationic-PAGE and HPLC assays
Procedure: as §4
To assess and compare proteolysis degradation in the WS environment, all the peptides were added to WSS to observe their degradation over time by cationic-PAGE and HPLC. […] After 0, 0.5, 1.5, 4, 6, 8, 24 and 48 h of incubation, two aliquots of 100 µL were removed (one for the cationic-PAGE analysis another for HPLC analysis). After that, the aliquots were boiled for 5 min to terminate proteolytic activity. Subsequently the aliquots were diluted in a buffer containing 80% acetonitrile/19.9% H2O/0.1% trifluoroacetic acid, dried using a Vacufuge concentrator (Eppendorf, Westbury, NY, USA) and desalted using ZipTip® Pipette Tips (Merk, Rahway, NJ, USA) to concentrate and purify the samples [29].
The aliquots collected for the HPLC analysis were also dried, desalted and resuspended in 30 μL of 10 mM Tris·HCl pH 7.2 buffer solution. Then, 30 µL was analyzed by HPLC in analytical mode using a Waters Symmetry® C18 5 µm, 4.6 × 250 mm reverse phase column (Part No. WAT054275) (Waters, Milford, MA, USA). The solvents used were all chromatographic grade (purchase from Sigma-Aldrich®, St. Louis, MO, USA) and the water used was ultrapure. The chromatographic conditions were solvents A (0.045% TFA/H2O) and B (0.036% TFA/ACN), in a gradient of 5% to 95% B in 30 min, with a flow of 0.53 mL min^−1 at a detector wavelength of 280 nm, using a Waters Alliance 2695 HPLC connected to a Waters 2996 photodiode array detector (Waters, Milford, MA, USA).

[3] = system: C. albicans ATCC 10231 (fluconazole-resistant); conditions: fluconazole-resistant strain, Sabouraud Dextrose Broth, 37 °C, 48 h, OD 595 nm, triplicate
Procedure: as §1, §2, §3

Molecule	Inhibition of C. albicans ATCC 18804 (C. albicans ATCC 18804; 20 µmol L^-1)	Inhibition of C. albicans ATCC 90028 (C. albicans ATCC 90028)	Time at which the band was no longer observed in the gel (total/complete degradation) [1]	remaining at 0.5 h, 50 µg mL^-1 (in vitro)	Minimum inhibitory concentration (MIC) (C. albicans)	Peptide remaining (band quantification) [1]	HPLC peak of intact peptide after 8 h (in words) [2]	remaining at 4 h, 50 µg mL^-1 (in vitro)	Inhibition of C. albicans ATCC 18804 (C. albicans ATCC 18804; 80 µmol L^-1)	Inhibition of C. albicans ATCC 18804 (C. albicans ATCC 18804; 160 µmol L^-1)	Band of the peptide in the gel at 8 h (in words) [1]	Time after which the peptide was still found in the samples in whole saliva [2]	remaining at 6 h, 50 µg mL^-1 (in vitro)	remaining at 8 h, 50 µg mL^-1 (in vitro)	remaining at 24 h, 50 µg mL^-1 (in vitro)	remaining at 48 h, 50 µg mL^-1 (in vitro)	Inhibition of C. albicans ATCC 10231 ([3]; peptide 160 µmol L^-1)	Inhibition of growth of C. albicans ATCC 10231 ([3]; peptide 40 µmol L^-1)	Inhibition of C. albicans ATCC 18804 (C. albicans ATCC 18804; 40 µmol L^-1)
C[C@H](NC(=O)[C@H](Cc1c[nH]cn1)NC(=O)[C@H](CO)NC(=O)[C@H](CC(=O)O)NC(=O)[C@@H](N)Cc1c[nH]c2ccccc12)C(=O)N[C@@H](CCCCN)C(=O)N[C@@H](CCCNC(=N)N)C(=O)N[C@@H](Cc1c[nH]cn1)C(=O)N[C@@H](Cc1c[nH]cn1)C(=O)NCC(=O)N[C@@H](Cc1ccc(O)cc1)C(=O)N[C@@H](CCCCN)C(=O)N[C@@H](CCCNC(=N)N)C(=O)N[C@@H](CCCCN)C(=O)N[C@@H](Cc1ccccc1)C(=O)N[C@@H](Cc1c[nH]cn1)C(=O)N[C@@H](CCC(=O)O)C(=O)N[C@@H](CCCCN)C(=O)N[C@@H](Cc1c[nH]cn1)C(=O)N[C@@H](Cc1c[nH]cn1)C(=O)N[C@@H](CO)C(=O)N[C@@H](Cc1c[nH]cn1)C(=O)N[C@@H](CCCNC(=N)N)C(=O)NCC(=O)N[C@@H](Cc1ccc(O)cc1)C(=O)O [Peptide 0WHst5]	greater than 80%	75%	≤ 4 h	91 ± 17%															
Histatin 5 [Hst5]					8 to 16 µg/mL														
WAKRHHGYKRKFH [WP113]		76%	> 4 h	89.5 ± 7.3%		100.0 ± 0.0%	disappeared	7.23 ± 8.17%											
WKRHHGY [Peptide 6WH5]				98.8 ± 1.1%		100.0 ± 0.0%	still detectable	79.3 ± 9.8%	above 70%	greater than 80%	possible to visualize the band	≥ 8 h	52.4 ± 7%	30.6 ± 4%	16.5 ± 5.9%	8.3 ± 6.2%			
WKRHHGYK [Peptide 7WH5]				100 ± 4.5%		100.0 ± 0.0%	still detectable	86.2 ± 3.1%	greater than 80%		possible to visualize the band	≥ 8 h	55.9 ± 5.8%	49.6 ± 2.4%	19.1 ± 7.5%	6.9 ± 1%	90.9%		
WKRHHGYKR [Peptide 8WH5]				99.9 ± 8%		100.0 ± 0.0%	still detectable	80.3 ± 13%			possible to visualize the band	≥ 8 h	62 ± 8.4%	44.2 ± 0.9%	8.6 ± 4.4%	3.5 ± 0.8%		85%	greater than 80%
